Data from paper PMC10290954 (Nature Metabolism, 2023).
“And” between values parts separate entries of the source, which are not always exact repeats. Equal values may be shown once.

Columns and labels:
Mouse GLP-1R [1] = target: T1, Mouse GLP-1R (Mus musculus, UniProt O35659); assay: Gs recruitment (ligand-induced BRET), mouse GLP-1R; type: cell-based; conditions: mean (SEM, n)
T1 construct: expressed in transfected cells; host or cells: HEK293T, transient (Lipofectamine 2000)
T1 sequence (O35659 22-463): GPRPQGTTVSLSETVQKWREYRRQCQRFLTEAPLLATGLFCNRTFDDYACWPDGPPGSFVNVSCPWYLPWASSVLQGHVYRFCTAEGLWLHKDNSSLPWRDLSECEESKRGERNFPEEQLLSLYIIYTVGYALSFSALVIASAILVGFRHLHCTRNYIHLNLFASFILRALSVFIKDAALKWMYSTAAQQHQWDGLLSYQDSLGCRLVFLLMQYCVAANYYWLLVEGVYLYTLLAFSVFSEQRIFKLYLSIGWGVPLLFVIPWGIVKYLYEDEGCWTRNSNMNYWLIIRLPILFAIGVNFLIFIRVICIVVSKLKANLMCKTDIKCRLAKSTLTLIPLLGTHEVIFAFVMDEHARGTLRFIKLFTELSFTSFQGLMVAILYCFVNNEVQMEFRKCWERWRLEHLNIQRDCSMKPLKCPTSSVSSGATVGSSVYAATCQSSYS
Experimental: (§1) BRET measurements were taken every 1 min using a PHERAstar FS multi-mode microplate reader. Baseline measurements were taken after an initial 5 min incubation with coelenterazine-h or NanoGlo-containing HBSS, after which cells were treated with either a vehicle (PBS) or the respective ligands. Ligand-specific ratiometric BRET signals were normalized to the vehicle, producing the ‘ligand-induced BRET ratio’[46], followed by additional normalization to well-specific baseline readings. Ligand-induced measurements on the temporal scale are represented as the subsequent measurement after time point zero. Positive or negative incremental area under the curves (+iAUC, –iAUC) were calculated where noted. Concentration–response curves were generated by three-parameter logistic fitting in Prism 9.0.

Mouse GLP-1R [2] = target: T1, Mouse GLP-1R; assay: cAMP generation (Glosensor), mouse GLP-1R; type: cell-based
Experimental: (§2) Methods for these assays have been previously described. In brief, for GTPγs binding, the potency of ligands to stimulate receptor-dependent elevation of the GTPγS-bound Gαs subunit was determined using membrane preparations from low-receptor-density receptor clonal cell lines. Reactions were incubated for 30 min at room temperature in white, clear-bottom microtiter plates, and per cent of the maximal response was calculated using control wells as a reference. Relative EC50 values were derived by nonlinear regression analysis using the per cent response versus the concentration of ligand and fitted to a four-parameter logistic equation using GraphPad Prism 7 software. For cAMP assays, kinetic cAMP assays were performed in low-density receptor cell clones transfected with the Glosensor 22 F vector (Promega). Cells were equilibrated for 5–20 min and then 20 μl of 10× ligand was added and a luminescence time course was collected. Ligand (10×) was titrated by manual serial dilution in DMSO followed by step-down into assay buffer.

[3] = in vivo; cited from earlier work
Source text: Tirzepatide is an agonist for both incretin receptors, engineered from the human GIP (hGIP) peptide sequence. It has an average half-life of approximately 5 days, enabling once-weekly dosing.

mouse GIP receptor [4] = target: T2, mouse GIP receptor (Mus musculus, UniProt Q0P543); assay: Gs recruitment (ligand-induced BRET), mouse GIPR; type: cell-based; design: expressed in transfected cells; conditions: HEK-293T, read-out: Gs recruitment Emax
T2 sequence (Q0P543 19-460): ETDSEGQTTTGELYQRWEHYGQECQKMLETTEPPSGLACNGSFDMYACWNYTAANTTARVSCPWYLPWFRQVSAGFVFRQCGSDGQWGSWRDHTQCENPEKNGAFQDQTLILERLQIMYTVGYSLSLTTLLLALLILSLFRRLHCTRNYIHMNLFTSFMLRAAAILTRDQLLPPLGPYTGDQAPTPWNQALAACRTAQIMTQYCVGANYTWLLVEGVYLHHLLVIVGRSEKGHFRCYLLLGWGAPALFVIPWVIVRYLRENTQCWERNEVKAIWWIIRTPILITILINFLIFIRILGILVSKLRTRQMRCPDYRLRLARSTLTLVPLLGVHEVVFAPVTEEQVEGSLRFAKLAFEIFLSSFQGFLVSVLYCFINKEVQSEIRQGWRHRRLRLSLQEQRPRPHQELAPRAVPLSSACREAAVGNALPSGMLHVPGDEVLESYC
Experimental: as §1

mouse GIP receptor [5] = target: T2, mouse GIP receptor; assay: cAMP generation (Glosensor), mouse GIPR; type: cell-based; design: expressed in transfected cells; host or cells: low-receptor-density clonal cell lines; conditions: mouse GIPR, low-density receptor clones, Glosensor; mean (s.e.m., n); read-out: cAMP Emax
Experimental: as §2

mouse GIP receptor [6] = target: T2, mouse GIP receptor; assay: [35S]GTPγS binding, mouse GIPR; type: biochemical; design: expressed in transfected cells; host or cells: low-receptor-density clonal cell lines
Experimental: as §2, with “collected.” for “collected. Ligand (10×) was titrated by manual serial dilution in DMSO followed by step-down into assay buffer.”

[7] = target: mouse GLP-1 receptor (mouse) (UniProt O35659); assay: other; competition with radioligand, header printed as [125I]GIP(1-42)OH
human islets = assay: Human islets, glucagon secretion with tirzepatide at 2.7 or 10 mM glucose ± alanine (Fig. 3d); type: cell-based
Experimental: Human islets were obtained from both the Alberta Diabetes Institute and the Integrated Islet Distribution Program. All islets were obtained from consenting donors. Details for the general perifusion protocol have been previously described[21] and are similar to the mouse perifusion protocol. […] Each set of human islets consisted of n = 3 for each condition. These were averaged to generate a single data point (Fig. 2c). Insulin values were measured with a Lumit insulin immunoassay (Promega) using an EnVision plate reader (PerkinElmer). For the glucagon secretion experiments (Fig. 3), the average glucagon values were calculated during control (minutes 35–45) and stimulated (minutes 55–65) conditions. All peptides were used at 30 nM concentrations based on previous work[16]. Amino acids were used at concentrations of 3 mM based on previous work[11]. Glucagon was measured with a Lumit Glucagon Immunoassay Kit (cat. no. CS3037A02; Promega) using an EnVision plate reader (PerkinElmer). Somatostatin was measured with an ELISA assay (cat. no. FEK-060-14; Phoenix Pharmaceuticals). All data are expressed as the measured concentration relative to both flow rate and islet number (insulin, ng ml^–1 × (1/200 µl ml^–1) × (1/75 islets); glucagon, pM × (1/200 µl ml^–1) × (1/75 islets); somatostatin, pg ml^–1 × (1/200 µl ml^–1) × (1/75 islets))[49]. […]

## CC[C@H](C)[C@H](NC(=O)[C@H](CC(C)C)NC(=O)[C@H](Cc1c[nH]c2ccccc12)NC(=O)[C@H](CCC(N)=O)NC(=O)[C@@H](NC(=O)[C@H](Cc1ccccc1)NC(=O)[C@H](C)NC(=O)[C@H](CCCCNC(=O)COCCOCCNC(=O)COCCOCCNC(=O)CC[C@H](NC(=O)CCCCCCCCCCCCCCCCCCC(=O)O)C(=O)O)NC(=O)[C@H](CCC(N)=O)NC(=O)[C@H](C)NC(=O)[C@@H](NC(=O)[C@H](CCCCN)NC(=O)[C@H](CC(=O)O)NC(=O)[C@H](CC(C)C)NC(=O)C(C)(C)NC(=O)[C@@H](NC(=O)[C@H](CO)NC(=O)[C@H](Cc1ccc(O)cc1)NC(=O)[C@H](CC(=O)O)NC(=O)[C@H](CO)NC(=O)[C@@H](NC(=O)[C@H](Cc1ccccc1)NC(=O)[C@@H](NC(=O)CNC(=O)[C@H](CCC(=O)O)NC(=O)C(C)(C)NC(=O)[C@@H](N)Cc1ccc(O)cc1)[C@@H](C)O)[C@@H](C)O)[C@@H](C)CC)[C@@H](C)CC)C(C)C)C(=O)N[C@@H](C)C(=O)NCC(=O)NCC(=O)N1CCC[C@H]1C(=O)N[C@@H](CO)C(=O)N[C@@H](CO)C(=O)NCC(=O)N[C@@H](C)C(=O)N1CCC[C@H]1C(=O)N1CCC[C@H]1C(=O)N1CCC[C@H]1C(=O)N[C@@H](CO)C(N)=O [TZP, tirzepatide]
Mouse GLP-1R [1]
  Emax: 35.6%
Mouse GLP-1R [2]; HEK293, mouse GLP-1R HEK-293 cells, n = 6, read-out: Emax, mean of column (T-test Emax, cAMP)
  Emax: 95%
Mouse GLP-1R [2]; HEK293, read-out: Arthmetic Mean Emax
  Emax: 95%
Mouse GLP-1R [2]; Mouse GLP-1R, mean (n), read-out: cAMP EMAX
  Emax: 84%
[3]
  Half-life: approximately 5 days
Mouse GIP receptor [4]; mouse GIPR, HEK293T BRET, mean (s.e.m., n)
  Emax: 72.6%
Mouse GIP receptor [5]
  Emax: 103%

## CC[C@H](C)[C@H](NC(=O)[C@H](CO)NC(=O)[C@H](Cc1ccc(O)cc1)NC(=O)[C@H](CC(=O)O)NC(=O)[C@H](CO)NC(=O)[C@@H](NC(=O)[C@H](Cc1ccccc1)NC(=O)[C@@H](NC(=O)CNC(=O)[C@H](CCC(=O)O)NC(=O)[C@H](C)NC(=O)[C@@H](N)Cc1ccc(O)cc1)[C@@H](C)O)[C@@H](C)CC)C(=O)N[C@@H](C)C(=O)N[C@@H](CCSC)C(=O)N[C@@H](CC(=O)O)C(=O)N[C@@H](CCCCN)C(=O)N[C@H](C(=O)N[C@@H](CCCNC(=N)N)C(=O)N[C@@H](CCC(N)=O)C(=O)N[C@@H](CCC(N)=O)C(=O)N[C@@H](CC(=O)O)C(=O)N[C@@H](Cc1ccccc1)C(=O)N[C@H](C(=O)N[C@@H](CC(N)=O)C(=O)N[C@@H](Cc1c[nH]c2ccccc12)C(=O)N[C@@H](CC(C)C)C(=O)N[C@@H](CC(C)C)C(=O)N[C@@H](C)C(=O)N[C@@H](CCC(N)=O)C(=O)N[C@@H](CCCNC(=N)N)C(=O)NCC(=O)N[C@@H](CCCCN)C(=O)N[C@@H](CCCCN)C(=O)N[C@@H](CO)C(=O)N[C@@H](CC(=O)O)C(=O)N[C@@H](Cc1c[nH]c2ccccc12)C(=O)N[C@@H](CCCCN)C(=O)N[C@@H](Cc1c[nH]cn1)C(=O)N[C@@H](CC(N)=O)C(=O)N[C@H](C(=O)N[C@H](C(=O)N[C@@H](CCC(N)=O)C(N)=O)[C@@H](C)O)[C@@H](C)CC)C(C)C)[C@@H](C)CC [mGIP]
Mouse GIP receptor [4]
  Emax: 100%
Mouse GIP receptor [6]; mGIPR GTPgS, run of 2019-06-25
  Emax: 98.5%
Mouse GIP receptor [6]; mGIPR GTPgS, run of 2022-05-11
  Emax: 98.7%
Mouse GIP receptor [6]; mGIPR GTPgS, run of 2022-05-12
  Emax: 98%
Mouse GIP receptor [6]; mGIPR GTPgS, run of 2022-06-16
  Emax: 101%
Mouse GIP receptor [6]; mGIPR GTPgS, run of 2022-06-21
  Emax: 102%
Mouse GIP receptor [6]; read-out: [35S]GTPγS binding Emax, mouse GIPR, membranes, 30 min room temperature, mean (s.e.m., n)
  Emax: 98.9%
Mouse GIP receptor [5]
  Emax: 103%

## TZP
[7]
  Ki: 0.387 nM

## C[C@H](N)C(=O)O [Alanine]
Human islets
  iAUC values (glucagon secretion): 42.82 and 37.07 and 49.41 and 40.38 and 34.9 and 39.11
